4 compounds from patent US9062014B2, “Crystalline forms of (R)-5-[3-chloro-4-(2,3-dihydroxy-propoxy)-benz[Z]ylidene]-2-([Z]-propylimino)-3-0-tolyl-thiazolidin-4-one” (ACTELION PHARMACEUTICALS LTD., priority 2008, dated 2015) can be followed below.

The series can be described thus: Hygroscopicity by gravimetric vapour sorption (GVS). Type of series: physicochemical. The settings on record: 25° C.; for Hygroscopicity classification according to the European Pharmacopea Technical Guide (1999 edition): mass change between 40% and 80% relative humidity, first adsorption scan; for mass gain: mass change between 40% relative humidity and 80% relative humidity in the first adsorption scan. How it is done:
Gravimetric Vapour Sorption (GVS)
Sorption isotherms are obtained using a Hiden IGASorp moisture sorption analyser, controlled by CFRSorp software. The sample temperature is maintained at 25° C. by a Huber re-circulating water bath. The humidity is controlled by mixing streams of dry and wet nitrogen, with a total flow rate of 250 ml·min^−1. The relative humidity is measured by a calibrated Vaisala RH probe (dynamic range of 0-95% RH), located near the sample. The weight change of the sample as a function of % RH is constantly monitored by the microbalance (accuracy±0.001 mg).
Typically 10-20 mg of sample is placed in a tared mesh stainless steel basket under ambient conditions. The sample is loaded and unloaded at 40% RH and 25° C. (typical room conditions).
A moisture sorption isotherm is performed as outlined below (2 scans giving 1 complete cycle). The standard isotherm is performed at 25° C. at 10% RH intervals over a 0-90% RH range.
The software uses a least squares minimisation procedure together with a model of the mass relaxation, to predict an asymptotic value. The measured mass relaxation value must be within 5% of that predicted by the software, before the next % RH value is selected. The minimum equilibration time is set to 1 hour and the maximum to 4 hours.
Classification is done according to the European Pharmacopea Technical Guide (1999 edition) (e.g. slightly hygroscopic: increase in mass is less than 2% and equal to or greater than 0.2% mass/mass; hygroscopic: increase in mass is less than 15% and equal to or greater than 2% mass/mass). The mass change between 40% relative humidity and 80% relative humidity in the first adsorption scan is considered.

`CCC/N=C1\S/C(=C\c2ccc(OC[C@H](O)CO)c(Cl)c2)C(=O)N1c1ccccc1C` [Amorphous, (R)-5-[3-chloro-4-(2,3-dihydroxy-propoxy)-benz[Z]ylidene]-2-([Z]-propylimino)-3-o-tolyl-thiazolidin-4-one]: the “Hygroscopicity classification according to the European Pharmacopea Technical Guide (1999 edition)” value (“Hygroscopicity classification according” for short) was “Hygroscopic (hygroscopic: increase in mass is less than 15% and equal to or greater than 2% mass/mass)”; the mass gain turned out to be 2.1%.
Take `CCC/N=C1\S/C(=C\c2ccc(OC[C@H](O)CO)c(Cl)c2)C(=O)N1c1ccccc1C` [Form A, (R)-5-[3-chloro-4-(2,3-dihydroxy-propoxy)-benz[Z]ylidene]-2-([Z]-propylimino)-3-o-tolyl-thiazolidin-4-one]: the “Hygroscopicity classification according” value is “Non-hygroscopic” and the mass gain is < 0.2%.
On the same counts, the results for `CCC/N=C1\S/C(=C\c2ccc(OC[C@H](O)CO)c(Cl)c2)C(=O)N1c1ccccc1C` [Form C, (R)-5-[3-chloro-4-(2,3-dihydroxy-propoxy)-benz[Z]ylidene]-2-([Z]-propylimino)-3-o-tolyl-thiazolidin-4-one] are “Non-hygroscopic” and < 0.2%.
As for `CCC/N=C1\S/C(=C\c2ccc(OC[C@H](O)CO)c(Cl)c2)C(=O)N1c1ccccc1C` [Form II, (R)-5-[3-chloro-4-(2,3-dihydroxy-propoxy)-benz[Z]ylidene]-2-([Z]-propylimino)-3-o-tolyl-thiazolidin-4-one], the “Hygroscopicity classification according” value was “Slightly hygroscopic (slightly hygroscopic: increase in mass is less than 2% and equal to or greater than 0.2% mass/mass)”; the mass gain was determined as 0.2%.
